Reference: patent US10815222B2, “Compounds for use in the treatment of kinetoplastid infection” (C.N.C.C.S. S.c.a.r.l. COLLEZIONE NAZIONALE DEI COMPOSTI …, priority 2016, dated 2020)
Read-outs that look alike come from different tables or passages of the source.

Key:
Format in all cases: cell-based
[1] = tested on: Bloodstream form of Trypanosoma brucei, strain Lister 427; assay: Trypanosoma brucei growth inhibition assay (CellTiter-Glo, 24 h); conditions: Trypanosoma brucei
Method in brief: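 Bloodstream-form T. brucei Lister 427, 1500 parasites per well in supplemented IMDM with 10% FBS, were exposed to compound (DMSO ≤0.25% final) for 24 h at 37 °C. Viability was measured by CellTiter-Glo luminescence.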

HeLa cells = assay: HeLa cytotoxicity assay (CellTiter Glo, 72 h); conditions: Homo sapiens, read-out: Cell Proliferation Hela IC50
Method: (§1) HeLa cells (ATCC® CCL2™) in DMEM (Dulbecco Modified Eagle's Medium) without phenol red, Thermo, 11880, USA+10% FBS+1× PenStrep+1× Gln or HUVEC cells (ATCC® CRL1730™) in EBM-2 (Endothelial Growth Basal Medium, Lonza, CC3156)+EGM-2 SingleQuotsTMSupplements and Growth Factors (Lonza, CC4176)+1× Penicyllin-Streptomycin (PenStrep, ThermoFisher)+1× Glutamine, are plated in a 384 well plate (Thermo, 4334-11, USA) to a density of 2000 cells per well and let recover for four hours at 37° C., 5% CO2 in a humidified atmosphere. After the recovery, compounds are transferred to assay plates as per compound preparation method. Assay plates are then incubated at 37° C., 5% CO2 in a humidified atmosphere for 72 hours. Cell viability is measured by the CellTiter Glo (Promega, G8080, USA) as per manufacturer instruction.

HUVEC cells = assay: HUVEC cytotoxicity assay (CellTiter Glo, 72 h); conditions: Homo sapiens, read-out: Cell Proliferation HUVEC IC50
Method: as §1

[2] = T. Brucei Growth Inibition Assay, class symbols, read-out: T. Brucei GI EC50
[3] = Table 3, read-out: T. brucei GI EC50

For `COc1nc2ccccc2cc1-c1cnc(C2CN(C)CCN2C(=O)Cc2c(C)[nH]c3ccc(F)cc23)[nH]1` (stereo not drawn) [2-(5-fluoro-2-methyl-1H-indol-3-yl)-1-(2-(5-(2-methoxyquinolin-3-yl)-1H-imidazol-2-yl)-4-methylpiperazin-1-yl)ethan-1-one], the EC50 [1, 2] was 100 to 500 nM, the EC50 [1, 3] was 122 nM and the IC50 (HeLa cells) was 18100 nM. For the same molecule, the IC50 (HUVEC cells) was 5680 nM.

Work on `CCCCCCN1CCN(C(=O)Cc2c(C)[nH]c3ccc(OC)cc23)C(c2ncc(-c3ccc4ccccc4c3)[nH]2)C1` (stereo not drawn) [1-(4-hexyl-2-(5-(naphthalen-2-yl)-1H-imidazol-2-yl)piperazin-1-yl)-2-(5-methoxy-2-methyl-1H-indol-3-yl)ethan-1-one] yielded an EC50 [1, 2] of less than 100 nM, an EC50 [1, 3] of 78.7 nM and an IC50 (HeLa cells) of no less than 25000 nM. For the same molecule, the IC50 (HUVEC cells) was no less than 25000 nM.

With `COc1ccc2[nH]c(C)c(CC(=O)N3CCN(C)CC3c3ncc(-c4cc5ccccc5nc4OC)[nH]3)c2c1` (stereo not drawn) [2-(5-methoxy-2-methyl-1H-indol-3-yl)-1-(2-(5-(2-methoxyquinolin-3-yl)-1H-imidazol-2-yl)-4-methylpiperazin-1-yl)ethan-1-one] the EC50 [1, 2] was 100 to 500 nM, the EC50 [1, 3] was 139 nM and the IC50 (HeLa cells) was no less than 25000 nM. For the same molecule, the IC50 (HUVEC cells) was no less than 25000 nM.

With `COc1ccc2[nH]c(C)c(CC(=O)N3CCN(CC4CC4)CC3c3ncc(-c4ccc5ccccc5c4)[nH]3)c2c1` (stereo not drawn) [1-(4-(cyclopropylmethyl)-2-(5-(naphthalen-2-yl)-1H-imidazol-2-yl)piperazin-1-yl)-2-(5-methoxy-2-methyl-1H-indol-3-yl)ethan-1-one] the EC50 [1, 2] was less than 100 nM, the EC50 [1, 3] was 17.6 nM and the IC50 (HeLa cells) was no less than 25000 nM. For the same molecule, the IC50 (HUVEC cells) was 8060 nM.

`COc1nc2ccccc2cc1-c1cnc(C2CN(Cc3cnn(C)c3)CCN2C(=O)Cc2c(C)[nH]c3ccc(F)cc23)[nH]1` (stereo not drawn) [2-(5-fluoro-2-methyl-1H-indol-3-yl)-1-(2-(5-(2-methoxyquinolin-3-yl)-1H-imidazol-2-yl)-4-((1-methyl-1H-pyrazol-4-yl)methyl)piperazin-1-yl)ethan-1-one] showed an EC50 [1, 2] of 100 to 500 nM, an EC50 [1, 3] of 172 nM and an IC50 (HeLa cells) of 17400 nM. The IC50 (HUVEC cells) was 6720 nM.

In the case of `CCC(=O)CCCN1CCN(C(=O)Cc2c[nH]c3ncccc23)C(c2ncc(-c3ccc4ccccc4c3)[nH]2)C1` (stereo not drawn), the EC50 [1, 2] is reported as 510 to 1000 nM, the EC50 [1, 3] is reported as 545 nM and the IC50 (HeLa cells) is reported as no less than 25000 nM. For the same molecule, the IC50 (HUVEC cells) was no less than 25000 nM.

Work on `CCC(=O)CCCN1CCN(C(=O)Cc2c[nH]c3ccccc23)C(c2ncc(-c3ccc4ccccc4c3)[nH]2)C1` (stereo not drawn) yielded an EC50 [1, 2] of 100 to 500 nM, an EC50 [1, 3] of 489 nM and an IC50 (HeLa cells) of no less than 25000 nM. For the same molecule, the IC50 (HUVEC cells) was 9970 nM.

For `COc1nc2ccccc2cc1-c1cnc(C2CN(C3CCOCC3)CCN2C(=O)Cc2c(C)[nH]c3ccc(F)cc23)[nH]1` (stereo not drawn) [2-(5-fluoro-2-methyl-1H-indol-3-yl)-1-(2-(5-(2-methoxyquinolin-3-yl)-1H-imidazol-2-yl)-4-(tetrahydro-2H-pyran-4-yl)piperazin-1-yl)ethan-1-one], the EC50 [1, 2] was 100 to 500 nM, the EC50 [1, 3] was 117 nM and the IC50 (HeLa cells) was no less than 25000 nM. For the same molecule, the IC50 (HUVEC cells) was 10600 nM.

With `COc1nc2ccccc2cc1-c1cnc(C2CN(CC3CCOC3)CCN2C(=O)Cn2c(C)nc3ccccc32)[nH]1` (stereo not drawn) [1-(2-(5-(2-methoxyquinolin-3-yl)-1H-imidazol-2-yl)-4-((tetrahydrofuran-3-yl)methyl)piperazin-1-yl)-2-(2-methyl-1H-benzo[d]imidazol-1-yl)ethan-1-one] the EC50 [1, 2] was 100 to 500 nM, the EC50 [1, 3] was 163 nM and the IC50 (HeLa cells) was 20600 nM. It also gave an IC50 (HUVEC cells) of no less than 25000 nM.

Molecule `COc1ccc2nc(C(F)(F)F)n(CC(=O)N3CCN(CCc4cnoc4)C[C@H]3c3ncc(-c4cc5ccccc5nc4OC)[nH]3)c2c1` [(S)-1-(4-(2-(isoxazol-4-yl)ethyl)-2-(5-(2-methoxyquinolin-3-yl)-1H-imidazol-2-yl)piperazin-1-yl)-2-(6-methoxy-2-(trifluoromethyl)-1H-benzo[d]imidazol-1-yl)ethan-1-one] has an EC50 [1, 2] of less than 100 nM.

With `CN1CCN(C(=O)Cc2noc3ccccc23)C(c2ncc(-c3ccc4ccccc4c3)[nH]2)C1` (stereo not drawn) the EC50 [1, 2] was 1010 to 5000 nM.

`COc1ccc2[nH]c(C)c(CC(=O)N3CCN(C)CC3c3ncc(-c4ccc5ccccc5c4)n3C)c2c1` (stereo not drawn) gave an EC50 [1, 2] of 1010 to 5000 nM.

`COc1ccc2nc(C)n(CC(=O)N3CC[C@H](N4CCOCC4)C[C@H]3c3ncc(-c4cc5ccccc5nc4OC)[nH]3)c2c1` [2-(6-methoxy-2-methyl-1H-benzo[d]imidazol-1-yl)-1-((2S,4S)-2-(5-(2-methoxyquinolin-3-yl)-1H-imidazol-2-yl)-4-morpholinopiperidin-1-yl)ethan-1-one] showed an EC50 [1, 2] of 100 to 500 nM.

`COc1ccc2[nH]c(C)c(CC(=O)N3CC(=O)N(C)CC3c3ncc(-c4ccc5ccccc5c4)[nH]3)c2c1` (stereo not drawn) [4-(2-(5-methoxy-2-methyl-1H-indol-3-yl)acetyl)-1-methyl-5-(5-(naphthalen-2-yl)-1H-imidazol-2-yl)piperazin-2-one] gave an EC50 [1, 2] of 510 to 1000 nM.

With `COc1ccc2[nH]c(C)c(CC(=O)N3CCCN(C)CC3c3ncc(-c4ccc5ccccc5c4)[nH]3)c2c1` (stereo not drawn) [2-(5-methoxy-2-methyl-1H-indol-3-yl)-1-(4-methyl-2-(5-(naphthalen-2-yl)-1H-imidazol-2-yl)-1,4-diazepan-1-yl)ethan-1-one] the EC50 [1, 2] was 1010 to 5000 nM.

In the case of `COc1ccc2nc(C)n(CC(=O)N3CCN(Cc4nccs4)CCC3c3ncc(-c4cc5ccccc5nc4OC)[nH]3)c2c1` (stereo not drawn) [2-(6-methoxy-2-methyl-1H-benzo[d]imidazol-1-yl)-1-(7-(5-(2-methoxyquinolin-3-yl)-1H-imidazol-2-yl)-4-(thiazol-2-ylmethyl)-1,4-diazepan-1-yl)ethan-1-one], the EC50 [1, 2] is reported as less than 100 nM.

For `COc1ccc2nc(C(F)(F)F)n(CC(=O)N3CC[C@H](N4CCOCC4)C[C@H]3c3ncc(-c4cc5ccccc5nc4OC)[nH]3)c2c1` [2-(6-methoxy-2-(trifluoromethyl)-1H-benzo[d]imidazol-1-yl)-1-((2S,4S)-2-(5-(2-methoxyquinolin-3-yl)-1H-imidazol-2-yl)-4-morpholinopiperidin-1-yl)ethan-1-one], the EC50 [1, 2] was less than 100 nM.

`COc1ccc2c(c1)C(CC(=O)N1CCN(CCc3ccccc3)CC1c1ncc(-c3ccc4ccccc4c3)[nH]1)C(=O)N2` (stereo not drawn) was tested, and the EC50 [1, 2] was 510 to 1000 nM.

With `COc1nc2ccccc2cc1-c1cnc(C2COCCN2C(=O)OCc2ccccc2)[nH]1` (stereo not drawn) [benzyl 3-(5-(2-methoxyquinolin-3-yl)-1H-imidazol-2-yl)morpholine-4-carboxylate] the EC50 [1, 2] was 1010 to 5000 nM.

Work on `COc1nc2ccccc2cc1-c1cnc([C@@H]2CN(CC3CCOC3)CCN2C(=O)Cn2c(C(N)=O)nc3ccccc32)[nH]1` (stereo partly drawn) yielded an EC50 [1, 2] of 510 to 1000 nM.

With `COc1ccc2nc(C)n(CC(=O)N3CCN(C4CCS(=O)(=O)CC4)C[C@H]3c3ncc(-c4cc5ccccc5nc4OC)[nH]3)c2c1` the EC50 [1, 2] was 510 to 1000 nM.

For `COc1ccc2cc(C)n(CC(=O)N3CCS(=O)(=O)CC3c3ncc(-c4cc5ccccc5nc4OC)[nH]3)c2c1` (stereo not drawn), the EC50 [1, 2] was 510 to 1000 nM.

Molecule `COc1nc2ccccc2cc1-c1cnc(C2CN(CC3CCOC3)CCN2C(=O)c2sc(-c3cnccn3)nc2C)[nH]1` (stereo not drawn) has an EC50 [1, 2] of 1010 to 5000 nM.

`COc1ccc2nc(C(F)(F)F)n(CC(=O)N3CCN(C4CCC4)CCC3c3ncc(-c4cc5ccccc5nc4OC)[nH]3)c2c1` (stereo not drawn) [1-(4-cyclobutyl-7-(5-(2-methoxyquinolin-3-yl)-1H-imidazol-2-yl)-1,4-diazepan-1-yl)-2-(6-methoxy-2-(trifluoromethyl)-1H-benzo[d]imidazol-1-yl)ethan-1-one] showed an EC50 [1, 2] of less than 100 nM.

`COc1ccc2nc(C(F)(F)F)n(CC(=O)N3CCN(Cc4ccnnc4)C[C@H]3c3ncc(-c4cc5ccccc5nc4OC)[nH]3)c2c1` [(S)-2-(6-methoxy-2-(trifluoromethyl)-1H-benzo[d]imidazol-1-yl)-1-(2-(5-(2-methoxyquinolin-3-yl)-1H-imidazol-2-yl)-4-(pyridazin-4-ylmethyl)piperazin-1-yl)ethan-1-one] gave an EC50 [1, 2] of less than 100 nM.

For `COc1nc2ccccc2cc1-c1cnc(C2CN(CC3CCOC3)CCN2C(=O)c2cnc3ccccc3c2)[nH]1` (stereo not drawn), the EC50 [1, 2] was 1010 to 5000 nM.

`COc1ccc2c(c1)nc(C(F)(F)F)n2CC(=O)N1CCN(CC2CCOC2)C[C@H]1c1ncc(-c2cc3ccccc3nc2OC)[nH]1` (stereo partly drawn) [2-(5-methoxy-2-(trifluoromethyl)-1H-benzo[d]imidazol-1-yl)-1-((2S)-2-(5-(2-methoxyquinolin-3-yl)-1H-imidazol-2-yl)-4-((tetrahydrofuran-3-yl)methyl)piperazin-1-yl)ethan-1-one] gave an EC50 [1, 2] of less than 100 nM.

Work on `COc1nc2ccccc2cc1-c1cnc(C2CN(CC3CCOC3)CCN2C(=O)Cn2ccnc2-c2ccccc2)[nH]1` (stereo not drawn) yielded an EC50 [1, 2] of 1010 to 5000 nM.

Work on `COc1nc2ccccc2cc1-c1cnc(C2CN(CC3CCOC3)CCN2C(=O)Cn2nc3ccccc3n2)[nH]1` (stereo not drawn) yielded an EC50 [1, 2] of 1010 to 5000 nM.

For `COc1nc2ccccc2cc1-c1cnc(C2CN(C(=O)OCc3ccccc3)CCN2C(=O)Cn2c(C)nc3ccccc32)[nH]1` (stereo not drawn), the EC50 [1, 2] was 1010 to 5000 nM.

In the case of `COc1nc2ccccc2cc1-c1cnc(C2CN(CC3CCOC3)CCN2C(=O)Cn2nc(C)c3ccccc3c2=O)[nH]1` (stereo not drawn), the EC50 [1, 2] is reported as 510 to 1000 nM.

Work on `COc1nc2ccccc2cc1-c1cnc(C2CN(Cc3cc[n+]([O-])cc3)CCN2C(=O)Cc2c(C)[nH]c3ccc(F)cc23)[nH]1` (stereo not drawn) yielded an EC50 [1, 2] of 1010 to 5000 nM.

Work on `COc1nc2ccccc2cc1-c1cnc(C2CN(C)CCN2C(=O)Cc2ccccc2)[nH]1` (stereo not drawn) [1-(2-(5-(2-methoxyquinolin-3-yl)-1H-imidazol-2-yl)-4-methylpiperazin-1-yl)-2-phenylethan-1-one] yielded an EC50 [1, 2] of 1010 to 5000 nM.
